Data on 27 compounds can be found in patent US8791123B2, “Substituted pyrazolo[1,5-a]pyrimidine compounds as Trk kinase inhibitors” (Array Biopharma, Inc., priority 2009, dated 2014).

Assay [1] addresses TrkA (histidine-tagged recombinant human TrkA, cytoplasmic domain) (Homo sapiens (Human), UniProt P04629). Description: TrkA ELISA Assay. The format is biochemical. The settings on record: Table 1; ELISA, 500 μM ATP; read-out: TrkA Enzyme IC50. The gist of the method: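 His-tagged human TrkA cytoplasmic domain phosphorylated poly(Glu,Ala,Tyr 6:3:1) coated at 0.025 mg/mL, with inhibitors present. Phosphotyrosine was detected with HRP-conjugated PY20 antibody (0.2 μg/mL) and TMB, read as absorbance at 450 nm after phosphoric acid stop.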

In another assay the target is Human Jak2 kinase domain (Homo sapiens (Human), UniProt O60674). Description: Jak2 Inhibition Assay (Omnia kinase assay). It counts as biochemical. As to conditions: read-out: Jak2 Enzyme IC50.
Where [2] appears, read: Table 1, 500 μM ATP, >1000 nM when >50% inhibition not observed at 1000 nM.

Read-outs that look alike come from different tables or passages of the source.

Sequence of Human Jak2 kinase domain (O60674 808-1132): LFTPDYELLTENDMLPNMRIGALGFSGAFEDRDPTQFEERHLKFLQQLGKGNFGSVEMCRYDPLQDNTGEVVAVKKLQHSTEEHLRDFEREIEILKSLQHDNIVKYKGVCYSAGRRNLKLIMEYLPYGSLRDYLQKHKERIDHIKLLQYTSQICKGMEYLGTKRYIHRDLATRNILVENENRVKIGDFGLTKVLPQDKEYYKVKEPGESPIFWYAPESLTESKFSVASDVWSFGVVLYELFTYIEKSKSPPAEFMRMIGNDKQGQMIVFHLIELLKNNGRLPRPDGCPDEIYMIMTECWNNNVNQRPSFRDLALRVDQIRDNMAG
Sequence of TrkA (histidine-tagged recombinant human TrkA, cytoplasmic domain) (P04629 440-796): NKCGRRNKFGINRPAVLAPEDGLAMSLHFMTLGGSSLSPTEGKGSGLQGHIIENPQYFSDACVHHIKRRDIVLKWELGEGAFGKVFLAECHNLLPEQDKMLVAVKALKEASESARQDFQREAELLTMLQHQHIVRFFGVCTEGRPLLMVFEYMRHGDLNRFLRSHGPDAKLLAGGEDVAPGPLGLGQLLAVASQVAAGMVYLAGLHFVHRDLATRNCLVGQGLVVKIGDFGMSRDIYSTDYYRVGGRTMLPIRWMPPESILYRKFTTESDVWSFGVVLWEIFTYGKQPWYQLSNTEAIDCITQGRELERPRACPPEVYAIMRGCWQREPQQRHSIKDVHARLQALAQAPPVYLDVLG

The IC50 is the concentration needed to halve the response being measured. As to `C[C@H](O)CNC(=O)c1cnn2ccc(N3CCC[C@@H]3c3cc(F)ccc3F)nc12` [Example 166, 5-((R)-2-(2,5-difluorophenyl)pyrrolidin-1-yl)-N-(2-hydroxypropyl)pyrazolo[1,5-a]primidine-3-carboxamide], the figures for the IC50 (in assay [1]; at Human Jak2 kinase domain (setting [2])) were 2.4 nM and above 1000 nM, respectively.

As to `COCC(O)CNC(=O)c1cnn2ccc(N3CCCC3c3cncc(F)c3)nc12` [Example 119, 5-((R)-2-(5-fluoropyridin-3-yl)pyrrolidin-1-yl)-N-(2-hydroxy-3-methoxypropyl)pyrazolo[1,5-a]pyrimidine-3-carboxamide], the IC50 was 131 nM in assay [1] and above 1000 nM on Human Jak2 kinase domain (setting [2]).

As for `Cn1cc(F)cc([C@H]2CCCN2c2ccn3ncc(C(=O)N[C@H](CO)C(C)(C)C)c3n2)c1=O` [Example 233, 5-((R)-2-(5-fluoro-1-methyl-2-oxo-1,2-dihydropyridin-3-yl)pyrrolidin-1-yl)-N-((S)-1-hydroxy-3,3-dimethylbutan-2-yl)pyrazolo[1,5-a]pyrimidine-3-carboxamide], the results for the IC50 (in assay [1]; at Human Jak2 kinase domain (setting [2])) were 75.9 nM and above 1000 nM, respectively.

As for `O=C(c1cnn2ccc(N3CCC[C@@H]3c3cncc(F)c3)nc12)N1CCCC1` [Example 94, (R)-(5-(2-(5-fluoropyridin-3-yl)pyrrolidin-1-yl)pyrazolo[1,5-a]pyrimidin-3-yl)(pyrrolidin-1-yl)methanone], the IC50 is 568 nM in assay [1] and above 1000 nM at Human Jak2 kinase domain (setting [2]).

Take `O=C(NC1(CO)CC1)c1cnn2ccc(N3CCC[C@@H]3c3cncc(F)c3)nc12` [Example 107, (R)-5-(2-(5-fluoropyridin-3-yl)pyrrolidin-1-yl)-N-(1-(hydroxymethyl)cyclopropyl)pyrazolo[1,5-a]pyrimidine-3-carboxamide]: the IC50 in assay [1] was 16.4 nM; at Human Jak2 kinase domain (setting [2]), above 1000 nM.

Turning to `COc1ncc(F)cc1[C@H]1CCCN1c1ccn2ncc(C(=O)NC3CC3)c2n1` [Example 79, (R)—N-cyclopropyl-5-(2-(5-fluoro-2-methoxypyridin-3-yl)pyrrolidin-1-yl)pyrazolo[1,5-a]pyrimidine-3-carboxamide], the IC50 in assay [1] came to 1.3 nM; at Human Jak2 kinase domain, 698 nM.

Take `O=C(NC1CC1)c1cnn2ccc(N3CCC[C@@H]3c3cc(F)cc(OCCN4CCOCC4)c3)nc12` [Example 85, (R)—N-cyclopropyl-5-(2-(3-fluoro-5-(2-morpholinoethoxy)phenyl)pyrrolidin-1-yl)pyrazolo[1,5-a]pyrimidine-3-carboxamide]: the IC50 was 9.38 nM in assay [1] and above 1000 nM at Human Jak2 kinase domain (setting [2]).

Consider `CC(NC(=O)c1cnn2ccc(N3CCCC3c3cncc(F)c3)nc12)C1CC1` [Example 113, N-(1-cyclopropylethyl)-5-((R)-2-(5-fluoropyridin-3-yl)pyrrolidin-1-yl)pyrazolo[1,5-a]pyrimidine-3-carboxamide], for which the values for the IC50 (in assay [1]; on Human Jak2 kinase domain (setting [2])) were 3.2 nM and above 1000 nM, respectively.

As to `CONC(=O)c1cnn2ccc(N3CCC[C@@H]3c3cncc(F)c3)nc12` [Example 73, (R)-5-(2-(5-fluoropyridin-3-yl)pyrrolidin-1-yl)-N-methoxypyrazolo[1,5-a]pyrimidine-3-carboxamide], the IC50 in assay [1] was 48.5 nM; on Human Jak2 kinase domain (setting [2]) it was above 1000 nM.

With `COCCNC(=O)c1cnn2ccc(N3CCC[C@@H]3c3cc(F)cnc3C)nc12` [Example 191, (R)-5-(2-(5-fluoro-2-methylpyridin-3-yl)pyrrolidin-1-yl)-N-(2-methoxyethyl)pyrazolo[1,5-a]pyrimidine-3-carboxamide], the IC50 in assay [1] was 69.5 nM; at Human Jak2 kinase domain (setting [2]), above 1000 nM.

Consider `Cn1cc(F)cc([C@H]2CCCN2c2ccn3ncc(C(=O)N[C@@H]4CCCC[C@H]4O)c3n2)c1=O` [Example 234, 5-((R)-2-(5-fluoro-1-methyl-2-oxo-1,2-dihydropyridin-3-yl)pyrrolidin-1-yl)-N-((1R,2R)-2-hydroxycyclohexyl)pyrazolo[1,5-a]pyrimidine-3-carboxamide], for which the IC50 in assay [1] is 10.7 nM; on Human Jak2 kinase domain (setting [2]) it was above 1000 nM.

On to `O=C(NC1CC1)c1cnn2ccc(N3CCC[C@@H]3c3cc(F)cc(OCC(O)CO)c3)nc12` (stereo partly drawn) [Example 208, N-cyclopropyl-5-((2R)-2-(3-(2,3-dihydroxypropoxy)-5-fluorophenyl)pyrrolidin-1-yl)pyrazolo[1,5-a]pyrimidine-3-carboxamide], for which the IC50 in assay [1] was 1.7 nM; on Human Jak2 kinase domain (setting [2]) it was above 1000 nM.

For the compound `NC(=O)c1cnn2ccc(N3CCC[C@@H]3c3cc(F)ccc3C(F)(F)F)nc12` [Example 64, (R)-5-(2-(5-fluoro-2-(trifluoromethyl)phenyl)pyrrolidin-1-yl)pyrazolo[1,5-a]pyrimidine-3-carboxamide], the IC50 in assay [1] worked out at 1.6 nM; on Human Jak2 kinase domain (setting [2]) it was 575 nM.

For the compound `COc1ncc(F)cc1[C@H]1CCCN1c1ccn2ncc(C(=O)NCCCO)c2n1` [Example 148, (R)-5-(2-(5-fluoro-2-methoxypyridin-3-yl)pyrrolidin-1-yl)-N-(3-hydroxypropyl)pyrazolo[1,5-a]pyrimidine-3-carboxamide], the figures for the IC50 (in assay [1]; on Human Jak2 kinase domain (setting [2])) were 1.1 nM and above 1000 nM, respectively.

In the case of `COc1ncc(F)cc1[C@H]1CCCN1c1ccn2ncc(C(=O)NC3CCN(S(C)(=O)=O)CC3)c2n1` [Example 162, (R)-5-(2-(5-fluoro-2-methoxypyridin-3-yl)pyrrolidin-1-yl)-N-(1-(methylsulfonyl)piperidin-4-yl)pyrazolo[1,5-a]pyrimidine-3-carboxamide], the IC50 in assay [1] came to 2.2 nM; at Human Jak2 kinase domain (setting [2]), 444 nM.

Regarding `O=C(NC1CCC1)c1cnn2ccc(N3CCC[C@@H]3c3cc(F)ccc3F)nc12` [Example 14, (R)—N-cyclobutyl-5-(2-(2,5-difluorophenyl)pyrrolidin-1-yl)pyrazolo[1,5-a]pyrimidine-3-carboxamide], the IC50 in assay [1] came to 0.55 nM; on Human Jak2 kinase domain (setting [2]), 470 nM.

For `COc1ncc(F)cc1[C@H]1CCCN1c1ccn2ncc(C(=O)NC[C@H](C)O)c2n1` [Example 156, 5-((R)-2-(5-fluoro-2-methoxypyridin-3-yl)pyrrolidin-1-yl)-N-((S)-2-hydroxypropyl)pyrazolo[1,5-a]pyrimidine-3-carboxamide], the IC50 was 2.1 nM in assay [1] and above 1000 nM at Human Jak2 kinase domain (setting [2]).

As for `O=C(c1cnn2ccc(N3CCC[C@@H]3c3cncc(F)c3)nc12)N1CC(CO)C1` [Example 127, (R)-(5-(2-(5-fluoropyridin-3-yl)pyrrolidin-1-yl)pyrazolo[1,5-a]pyrimidin-3-yl)(3-(hydroxymethyl)azetidin-1-yl)methanone], the figures for the IC50 (in assay [1]; on Human Jak2 kinase domain (setting [2])) were 470 nM and above 1000 nM, respectively.

For the compound `O=C(N[C@H]1CC[C@H](O)C1)c1cnn2ccc(N3CCC[C@@H]3c3cncc(F)c3)nc12` [Example 105, 5-((R)-2-(5-fluoropyridin-3-yl)pyrrolidin-1-yl)-N-((1S,3S)-3-hydroxycyclopentyl)pyrazolo[1,5-a]pyrimidine-3-carboxamide], the IC50 was 25.4 nM in assay [1] and above 1000 nM at Human Jak2 kinase domain (setting [2]).

Take `NC(=O)c1cnn2ccc(N3CCC[C@@H]3c3cc(F)ccc3OCCN3CCOCC3)nc12` [Example 86, (R)-5-(2-(5-fluoro-2-(2-morpholinoethoxy)phenyl)pyrrolidin-1-yl)pyrazolo[1,5-a]pyrimidine-3-carboxamide]: the IC50 was 26.7 nM in assay [1] and above 1000 nM on Human Jak2 kinase domain (setting [2]).

On to `CONC(=O)c1cnn2ccc(N3CCC[C@@H]3c3cc(F)ccc3F)nc12` [Example 65, (R)-5-(2-(2,5-difluorophenyl)pyrrolidin-1-yl)-N-methoxypyrazolo[1,5-a]pyrimidine-3-carboxamide], for which the IC50 in assay [1] is 0.6 nM; at Human Jak2 kinase domain (setting [2]), above 1000 nM.

Turning to `COc1ccc(F)cc1[C@H]1CCCN1c1ccn2ncc(C(=O)NC3CC3)c2n1` [Example 48, (R)—N-cyclopropyl-5-(2-(5-fluoro-2-methoxyphenyl)pyrrolidin-1-yl)pyrazolo[1,5-a]pyrimidine-3-carboxamide], the IC50 in assay [1] stood at 0.6 nM; on Human Jak2 kinase domain, 429 nM.

In the case of `COc1ncc(F)cc1[C@H]1CCCN1c1ccn2ncc(C(=O)N3CC(O)C3)c2n1` [Example 139, (R)-(5-(2-(5-fluoro-2-methoxypyridin-3-yl)pyrrolidin-1-yl)pyrazolo[1,5-a]pyrimidin-3-yl)(3-hydroxyazetidin-1-yl)methanone], the IC50 was 32.7 nM in assay [1] and above 1000 nM at Human Jak2 kinase domain (setting [2]).

For the compound `COc1ncc(F)cc1[C@H]1CCCN1c1ccn2ncc(C(=O)NCCCCO)c2n1` [Example 151, (R)-5-(2-(5-fluoro-2-methoxypyridin-3-yl)pyrrolidin-1-yl)-N-(4-hydroxybutyl)pyrazolo[1,5-a]pyrimidine-3-carboxamide], the IC50 is 1.4 nM in assay [1] and above 1000 nM at Human Jak2 kinase domain (setting [2]).

Consider `C[C@H](NC(=O)c1cnn2ccc(N3[C@@H](c4cncc(F)c4)CC[C@@]3(C)CO)nc12)C(F)(F)F` [Example 220, 5-((2S,5R)-5-(5-fluoropyridin-3-yl)-2-(hydroxymethyl)-2-methylpyrrolidin-1-yl)-N—((S)-1,1,1-trifluoropropan-2-yl)pyrazolo[1,5-a]pyrimidine-3-carboxamide], for which the values for the IC50 (in assay [1]; at Human Jak2 kinase domain) were 110 nM and above 1000 nM, respectively.

For `CCc1ncc(F)cc1[C@H]1CCCN1c1ccn2ncc(C(=O)N[C@H]3CC[C@H](O)C3)c2n1` [Example 200, 5-((R)-2-(2-ethyl-5-fluoropyridin-3-yl)pyrrolidin-1-yl)-N-((1S,3S)-3-hydroxycyclopentyl)pyrazolo[1,5-a]pyrimidine-3-carboxamide], the IC50 was 12.7 nM in assay [1] and above 1000 nM on Human Jak2 kinase domain (setting [2]).

As for `NC(=O)c1cnn2ccc(N3CCC[C@@H]3c3cc(F)cc(OCC(O)CO)c3)nc12` (stereo partly drawn) [Example 209, 5-((2R)-2-(3-(2,3-dihydroxypropoxy)-5-fluorophenyl)pyrrolidin-1-yl)pyrazolo[1,5-a]pyrimidine-3-carboxamide], the figures for the IC50 (in assay [1]; on Human Jak2 kinase domain (setting [2])) were 17.1 nM and above 1000 nM, respectively.
